What follows are compounds tested against full-length human PIKFYVE (GST-PIKFYVE) (Homo sapiens (Human), UniProt Q9Y2I7, L932S/Q1183K/Q995L/S1033A/S696N/T998S) (assay: PIKfyve biochemical assay (ADP-Glo Kinase assay, Carna Biosciences)). Conditions: ADP-Glo, full-length human PIKFYVE; read-out: hPIKfyve IC50.
full-length human PIKFYVE (GST-PIKFYVE), sequence (Q9Y2I7 whole entry S696N/L932S/Q995L/T998S/S1033A/Q1183K, the tested form may be a part): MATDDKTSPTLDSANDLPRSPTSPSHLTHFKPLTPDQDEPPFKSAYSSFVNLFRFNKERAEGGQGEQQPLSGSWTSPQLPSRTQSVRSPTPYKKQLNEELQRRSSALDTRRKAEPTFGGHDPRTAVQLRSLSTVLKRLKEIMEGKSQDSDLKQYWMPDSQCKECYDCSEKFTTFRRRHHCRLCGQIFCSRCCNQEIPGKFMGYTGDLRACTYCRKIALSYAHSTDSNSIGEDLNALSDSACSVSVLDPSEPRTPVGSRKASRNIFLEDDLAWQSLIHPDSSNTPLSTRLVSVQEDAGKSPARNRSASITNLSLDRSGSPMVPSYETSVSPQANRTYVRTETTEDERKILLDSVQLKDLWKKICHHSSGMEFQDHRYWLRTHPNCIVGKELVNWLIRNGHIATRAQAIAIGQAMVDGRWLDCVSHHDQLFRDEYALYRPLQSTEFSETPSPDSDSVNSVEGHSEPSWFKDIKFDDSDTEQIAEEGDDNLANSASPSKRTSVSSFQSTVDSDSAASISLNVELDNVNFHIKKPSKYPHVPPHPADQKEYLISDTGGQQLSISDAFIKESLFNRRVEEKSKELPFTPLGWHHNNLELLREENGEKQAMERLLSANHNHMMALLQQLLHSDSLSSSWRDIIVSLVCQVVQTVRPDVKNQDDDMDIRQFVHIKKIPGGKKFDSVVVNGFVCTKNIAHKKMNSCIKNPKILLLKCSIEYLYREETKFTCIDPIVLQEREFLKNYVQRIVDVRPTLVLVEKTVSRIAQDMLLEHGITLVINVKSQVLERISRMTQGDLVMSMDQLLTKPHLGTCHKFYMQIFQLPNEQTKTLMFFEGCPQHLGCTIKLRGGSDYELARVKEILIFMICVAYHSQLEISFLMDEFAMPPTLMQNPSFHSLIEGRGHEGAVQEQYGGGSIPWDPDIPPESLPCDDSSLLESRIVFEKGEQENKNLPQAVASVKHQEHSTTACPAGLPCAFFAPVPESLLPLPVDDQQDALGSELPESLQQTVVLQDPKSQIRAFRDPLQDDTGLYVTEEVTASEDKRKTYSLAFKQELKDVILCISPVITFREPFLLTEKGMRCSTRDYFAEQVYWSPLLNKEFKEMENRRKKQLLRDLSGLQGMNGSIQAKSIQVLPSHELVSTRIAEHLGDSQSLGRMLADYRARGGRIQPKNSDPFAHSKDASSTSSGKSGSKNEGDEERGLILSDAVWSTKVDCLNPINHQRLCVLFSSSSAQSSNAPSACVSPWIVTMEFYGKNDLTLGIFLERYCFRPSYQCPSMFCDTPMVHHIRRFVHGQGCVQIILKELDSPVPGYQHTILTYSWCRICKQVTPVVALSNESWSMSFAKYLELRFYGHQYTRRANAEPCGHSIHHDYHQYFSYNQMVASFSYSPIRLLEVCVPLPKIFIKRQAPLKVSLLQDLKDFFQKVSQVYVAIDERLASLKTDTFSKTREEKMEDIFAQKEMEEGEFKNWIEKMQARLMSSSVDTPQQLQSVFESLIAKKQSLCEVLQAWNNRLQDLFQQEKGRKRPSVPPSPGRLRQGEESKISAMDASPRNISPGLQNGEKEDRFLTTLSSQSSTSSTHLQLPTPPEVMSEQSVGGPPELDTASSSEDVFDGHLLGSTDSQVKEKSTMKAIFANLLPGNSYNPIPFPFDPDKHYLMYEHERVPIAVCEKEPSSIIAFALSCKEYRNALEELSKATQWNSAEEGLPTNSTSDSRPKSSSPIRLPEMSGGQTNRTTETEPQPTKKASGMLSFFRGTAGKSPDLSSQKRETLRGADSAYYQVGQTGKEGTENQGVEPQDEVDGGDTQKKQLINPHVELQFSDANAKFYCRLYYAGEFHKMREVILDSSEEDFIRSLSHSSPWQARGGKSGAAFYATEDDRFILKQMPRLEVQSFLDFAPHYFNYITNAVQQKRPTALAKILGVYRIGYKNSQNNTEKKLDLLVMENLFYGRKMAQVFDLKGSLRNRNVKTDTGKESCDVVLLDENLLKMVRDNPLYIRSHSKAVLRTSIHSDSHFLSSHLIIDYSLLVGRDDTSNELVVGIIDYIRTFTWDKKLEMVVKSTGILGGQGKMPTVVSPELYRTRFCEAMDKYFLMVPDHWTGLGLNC
Text: PIKfyve Biochemical Assay. The biochemical PIKFyve inhibition assays were run by Carna Biosciences according to proprietary methodology based on the Promega ADP-Glo™ Kinase assay. A full-length human PIKFYVE [1-2098(end) amino acids and S696N, L932S, Q995L, T998S, S1033A and Q1183K of the protein having the sequence set forth in NCBI Reference Sequence No. NP_055855.2] was expressed as N-terminal GST-fusion protein (265 kDa) using baculovirus expression system. GST-PIKFYVE was purified by using glutathione sepharose chromatography and used in an ADP-Glo™ Kinase assay (Promega). Reactions were set up by adding the test compound solution, substrate solution, ATP solution and kinase solution, each at 4× final concentrations. Reactions were prepared with assay buffer (50 mM MOPS, 1 mM DTT, pH7.2), mixed, and incubated in black 384 well polystyrene plates for 1 hour at room temperature. ADP-Glo™ reagent was then added for 40 minutes, followed by kinase detection reagent for an additional 40 minutes. The kinase activity was evaluated by detecting relative light units on a luminescence plate reader. Samples were run in duplicate from 10 μM to 3 nM. […] IC50 values were calculated from concentration vs % inhibition curves by fitting to a four-parameter logistic curve.
The biochemical PIKFyve inhibition assays were run by Carna Biosciences according to proprietary methodology based on the Promega ADP-Glo™ Kinase assay. A full-length human PIKFYVE [1-2098(end) amino acids and S696N, L932S, Q995L, T998S, S1033A and Q1183K of accession number NP_055855.2] was expressed as N-terminal GST-fusion protein (265 kDa) using baculovirus expression system. GST-PIKFYVE was purified by using glutathione sepharose chromatography and used in an ADP-Glo™ Kinase assay (Promega).
Reactions were set up by adding the test compound solution, substrate solution, ATP solution and kinase solution, each at 4× final concentrations. Reactions were prepared with assay buffer (50 mM MOPS, 1 mM DTT, pH7.2), mixed, and incubated in black 384 well polystyrene plates for 1 hour at room temperature. ADP-Glo™ reagent was then added for 40 minutes, followed by kinase detection reagent for an additional 40 minutes. The kinase activity was evaluated by detecting relative light units on a luminescence plate reader. Samples were run in duplicate from 10 uM to 3 nM. […] IC50 values were calculated from concentration vs % inhibition curves by fitting to a four-parameter logistic curve.
In the case of CCC(=O)N1CCC(c2ccn(-c3nc(N4CCOCC4)c4ncccc4n3)n2)CC1 [compound 1, 1-[4-[1-(4-morpholinopyrido[3,2-d]pyrimidin-2-yl)pyrazol-3-yl]-1-piperidyl]propan-1-one], the IC50 is reported as 1000 to 10000 nM. Compound c1cnc2c(N3CCOCC3)nc(-n3ccc(-c4cncnc4)n3)nc2c1 [compound 2, 4-[2-(3-pyrimidin-5-ylpyrazol-1-yl)pyrido[3,2-d]pyrimidin-4-yl]morpholine] has an IC50 of 1000 to 10000 nM. Work on CC(C)(C)OC(=O)N1CC=C(c2ccn(-c3nc(N4CCOCC4)c4ncccc4n3)n2)CC1 [compound 3, tert-butyl 4-[1-(4-morpholinopyrido[3,2-d]pyrimidin-2-yl)pyrazol-3-yl]-3,6-dihydro-2H-pyridine-1-carboxylate] yielded an IC50 of 1000 to 10000 nM. CC(C)(C)OC(=O)N1CCC=C(c2ccn(-c3nc(N4CCOCC4)c4ncccc4n3)n2)C1 [compound 4, tert-butyl 3-(1-(4-morpholinopyrido[3,2-d]pyrimidin-2-yl)-1H-pyrazol-3-yl)-5,6-dihydropyridine-1(2H)-carboxylate] gave an IC50 of 1000 to 10000 nM. For CC(C)(C)OC(=O)N1CCC(c2ccn(-c3nc(N4CCOCC4)c4ncccc4n3)n2)CC1 [compound 5, tert-butyl 4-[1-(4-morpholinopyrido[3,2-d]pyrimidin-2-yl)pyrazol-3-yl]piperidine-1-carboxylate], the IC50 was 1000 to 10000 nM. With CC(C)(C)OC(=O)N1CCCC(c2ccn(-c3nc(N4CCOCC4)c4ncccc4n3)n2)C1 (centres unmarked) [compound 6, tert-butyl 3-(1-(4-morpholinopyrido[3,2-d]pyrimidin-2-yl)-1H-pyrazol-3-yl)piperidine-1-carboxylate] the IC50 was 1000 to 10000 nM. In the case of c1ccc2nn(-c3nc(N4CCOCC4)c4ncccc4n3)cc2c1 [compound 7, 4-(2-indazol-2-ylpyrido[3,2-d]pyrimidin-4-yl)morpholine], the IC50 is reported as 100 to 1000 nM. CC(C)c1ccn(-c2nc(N3CCOCC3)c3ncccc3n2)n1 [compound 9, 4-(2-(3-isopropyl-1H-pyrazol-1-yl)pyrido[3,2-d]pyrimidin-4-yl)morpholine] gave an IC50 of 1000 to 10000 nM. With c1cnc2c(N3CCOCC3)nc(-n3ccc(-c4ccncc4)n3)nc2c1 [compound 10, 4-(2-(3-(pyridin-4-yl)-1H-pyrazol-1-yl)pyrido[3,2-d]pyrimidin-4-yl)morpholine] the IC50 was 100 to 1000 nM. Compound c1cncc(-c2ccn(-c3nc(N4CCOCC4)c4ncccc4n3)n2)c1 [compound 11, 4-(2-(3-(pyridin-3-yl)-1H-pyrazol-1-yl)pyrido[3,2-d]pyrimidin-4-yl)morpholine] has an IC50 of 100 to 1000 nM. With c1ccc(-c2ccn(-c3nc(N4CCOCC4)c4ncccc4n3)n2)nc1 [compound 12, 4-(2-(3-(pyridin-2-yl)-1H-pyrazol-1-yl)pyrido[3,2-d]pyrimidin-4-yl)morpholine] the IC50 was 10 to 100 nM. With c1ccc(-c2ccn(-c3nc(N4CCOCC4)c4ccncc4n3)n2)cc1 [compound 13] the IC50 was 100 to 1000 nM. CCc1cnc2c(N3CCOCC3)nc(-n3ccc(-c4ccncc4)n3)nc2c1 [compound 14, 4-(7-Ethyl-2-(3-(pyridin-4-yl)-1H-pyrazol-1-yl)pyrido[3,2-d]pyrimidin-4-yl)morpholine] was tested, and the IC50 was 1000 to 10000 nM. c1ccc(Nc2nc(N3CCOCC3)c3ncc(-c4ccco4)cc3n2)cc1 [compound 15, 7-(furan-2-yl)-4-morpholino-N-phenylpyrido[3,2-d]pyrimidin-2-amine] was tested, and the IC50 was 100 to 1000 nM. In the case of c1ccc(Oc2nc(N3CCOCC3)c3ncc(-c4ccco4)cc3n2)cc1 [compound 16, 4-(7-(furan-2-yl)-2-phenoxypyrido[3,2-d]pyrimidin-4-yl)morpholine], the IC50 is reported as > 10000 nM. In the case of c1ccc(-c2ccn(-c3nc(N4CCOCC4)c4ncc(C5CCCOC5)cc4n3)n2)cc1 (centres unmarked) [compound 19, 4-(2-(3-Phenyl-1H-pyrazol-1-yl)-7-(tetrahydro-2H-pyran-3-yl)pyrido[3,2-d]pyrimidin-4-yl)morpholine], the IC50 is reported as 10 to 100 nM. For Cc1cccc(CCNc2nc(N3CCOCC3)c3ncccc3n2)c1 [compound 23, N-(3-methylphenethyl)-4-morpholinopyrido[3,2-d]pyrimidin-2-amine], the IC50 was 100 to 1000 nM. Oc1cc(-c2ccccc2)nn1-c1nc(N2CCOCC2)c2cccnc2n1 [compound 25, 2-(4-morpholinopyrido[2,3-d]pyrimidin-2-yl)-5-phenyl-2,4-dihydro-3H-pyrazol-3-one] was tested, and the IC50 was 1000 to 10000 nM. With Oc1cc(-c2ccccc2)nn1-c1nc(N2CCOCC2)c2ncccc2n1 [compound 27, 1-(4-morpholinopyrido[3,2-d]pyrimidin-2-yl)-3-phenyl-1H-pyrazol-5-ol] the IC50 was 10 to 100 nM. Compound O=C1N(c2cccc(F)c2)CCN1c1nc(N2CCOCC2)c2ncccc2n1 [compound 28, 1-(3-fluorophenyl)-3-(4-morpholinopyrido[3,2-d]pyrimidin-2-yl)imidazolidin-2-one] has an IC50 of 1000 to 10000 nM. O=C1N(c2ccccc2)CCN1c1nc(N2CCOCC2)c2ncccc2n1 [compound 29, 1-(4-morpholinopyrido[3,2-d]pyrimidin-2-yl)-3-phenyl-imidazolidin-2-one] gave an IC50 of 1000 to 10000 nM. O=C1N(c2nc(N3CCOCC3)c3ncccc3n2)CCN1C1CCCC1 [compound 30, 1-cyclopentyl-3-(4-morpholinopyrido[3,2-d]pyrimidin-2-yl)imidazolidin-2-one] gave an IC50 of 1000 to 10000 nM. CCn1c(-c2ccccc2)nn(-c2nc(N3CCOCC3)c3ncccc3n2)c1=O [compound 31, 4-ethyl-2-(4-morpholinopyrido[3,2-d]pyrimidin-2-yl)-5-phenyl-1,2,4-triazol-3-one] gave an IC50 of 1000 to 10000 nM. Cn1c(-c2ccccc2)nn(-c2nc(N3CCOCC3)c3ncccc3n2)c1=O [compound 32, 4-methyl-2-(4-morpholinopyrido[3,2-d]pyrimidin-2-yl)-5-phenyl-1,2,4-triazol-3-one] was tested, and the IC50 was 1000 to 10000 nM. CC(C)(C)OC(=O)N1CCC(c2nccc(-c3nc(N4CCOCC4)c4ncccc4n3)n2)CC1 [compound 33, tert-butyl 4-[4-(4-morpholinopyrido[3,2-d]pyrimidin-2-yl)pyrimidin-2-yl]piperidine-1-carboxylate] gave an IC50 of 1000 to 10000 nM. c1cnc2c(N3CCOCC3)nc(-c3ccnc(N4CCNCC4)n3)nc2c1 [compound 34, 4-[2-(2-piperazin-1-ylpyrimidin-4-yl)pyrido[3,2-d]pyrimidin-4-yl]morpholine] was tested, and the IC50 was 1000 to 10000 nM. Compound c1cnc2c(N3CCOCC3)nc(-c3ccnc(C4CCOCC4)n3)nc2c1 [compound 35, 4-[2-(2-tetrahydropyran-4-ylpyrimidin-4-yl)pyrido[3,2-d]pyrimidin-4-yl]morpholine] has an IC50 of 1000 to 10000 nM. c1cnc2c(N3CCOCC3)nc(-c3ccnc(C4CCNCC4)n3)nc2c1 [compound 37, 4-[2-[2-(4-piperidyl)pyrimidin-4-yl]pyrido[3,2-d]pyrimidin-4-yl]morpholine] gave an IC50 of 1000 to 10000 nM. For CN1CCC(c2nccc(-c3nc(N4CCOCC4)c4ncccc4n3)n2)CC1 [compound 38, 4-[2-[2-(1-methyl-4-piperidyl)pyrimidin-4-yl]pyrido[3,2-d]pyrimidin-4-yl]morpholine], the IC50 was 1000 to 10000 nM. Compound c1cnc2c(N3CCOCC3)nc(-n3ccc(C4CCNCC4)n3)nc2c1 [compound 42, 4-[2-[3-(4-piperidyl)pyrazol-1-yl]pyrido[3,2-d]pyrimidin-4-yl]morpholine] has an IC50 of 1000 to 10000 nM. Compound c1cnc2c(N3CCOCC3)nc(-n3ccc(C4CCCNC4)n3)nc2c1 (centres unmarked) [compound 43, 4-(2-(3-(piperidin-3-yl)-1H-pyrazol-1-yl)pyrido[3,2-d]pyrimidin-4-yl)morpholine] has an IC50 of 1000 to 10000 nM. CN1CCCC(c2ccn(-c3nc(N4CCOCC4)c4ncccc4n3)n2)C1 (centres unmarked) [compound 44, 4-(2-(3-(1-methylpiperidin-3-yl)-1H-pyrazol-1-yl)pyrido[3,2-d]pyrimidin-4-yl)morpholine] showed an IC50 of 1000 to 10000 nM. Work on c1cnc2c(N3CCOCC3)nc(-n3ccc(C4CCOCC4)n3)nc2c1 [compound 45, 4-(2-(3-(tetrahydro-2H-pyran-4-yl)-1H-pyrazol-1-yl)pyrido[3,2-d]pyrimidin-4-yl)morpholine] yielded an IC50 of 1000 to 10000 nM. In the case of c1ccc(-c2ccn(-c3nc(N4CCOCC4)c4cnccc4n3)n2)cc1 [compound 46, 4-(2-(3-phenyl-1H-pyrazol-1-yl)pyrido[4,3-d]pyrimidin-4-yl)morpholine], the IC50 is reported as 1000 to 10000 nM. In the case of c1cnc2c(N3CCOCC3)nc(-n3ccc(C4CCCNC4)n3)nc2c1 (centres unmarked) [compound 48], the IC50 is reported as 1000 to 10000 nM.

Same assay, conditions: values plotted in FIG. 7; read-out: PIKFYVE Biochemistry (IC50)
With c1ccc(-c2nc(-c3cc(N4CCOCC4)nc(OCc4ccncc4)n3)no2)cc1 the IC50 was > 10000 nM. In the case of O=c1c(CCOc2cccnc2)cc2ncncc2n1-c1ccccc1, the IC50 is reported as > 10000 nM. In the case of O=c1ccn(Cc2nc(N3CCOCC3)cc(-n3nccc3-c3ccccc3)n2)cc1, the IC50 is reported as > 10000 nM.

Reference: patent US20240208964A1, “PYRIDOPYRIMIDINES AND METHODS OF THEIR USE” (PYRIDOPYRIMIDINES AND METHODS OF THEIR USE, priority 2020, published 2024)
